Assay results taken from US20090048185A1, “Therapeutic Drug for Suppressing Functions of NKT Cells Containing Glycolipid Derivative as Active Ingredient” (priority 2005, published 2009).

Key:
[1] = system: collagen induced arthritis (CIA); conditions: literature (Chiba et al., Arthritis Rheum. 2004); cited from earlier work
[2] = system: experimental autoimmune encephalomyelitis (EAE); conditions: literature (Miyamoto et al., Nature 2001); cited from earlier work
NKT cells = experiment: Effect of the compound on NKT cells (liver mononuclear cells incubated with compound); format: cell-based, C57BL/6J mice; conditions: 48 hours incubation, FIG. 4
Method: Mononuclear cells were isolated from the liver of C57BL/6J mice (8 weeks old, female) and are incubated with the compound for 48 hours.

| Compound | suppression of diseases in CIA [1] | suppression of diseases in EAE [2] | IFN-γ production (ELISA, supernatant) (NKT cells) | IL-4 production (ELISA, supernatant) (NKT cells) | cell proliferation (uptake of tritium thymidine) (NKT cells) |
| --- | --- | --- | --- | --- | --- |
| CCCCCCCCCCCCCCCCCCCCCCCC(=O)N[C@@H](COC1OC(CO)C(O)C(O)C1O)[C@H](O)[C@H](O)CCCCC (some centres unmarked) [OCH] | high effectiveness | high effectiveness |  |  |  |
| CCCCCCCCCCCCCCCCCCCCCCCCCC(=O)N[C@@H](COC1OC(CO)C(O)C(O)C1O)[C@H](O)[C@H](O)CCCCCCCCCCCCCC (stereo partly drawn) [α-GC, α-galactosyl ceramide] |  |  | induced | induced | induced |
